PubChem BioAssay AID330 (DTP/NCI, 2004)
Where “and” joins values, the source holds several entries; their conditions need not be identical. Equal values may be shown once. Toxic doses and inconclusive results are not listed. Rule for the calls: active = survival T/C of 150% or more; inactive = T/C below 125% in these data.

System: P388 leukemia ip, CD2F1 mice, survival T/C
Test: NCI In Vivo Anticancer Drug Screen. Data for tumor model P388 Leukemia (intraperitoneal) in CD2F1 (CDF1) mice
Conditions: endpoint: median survival time, higher = longer survival
In short: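 Mice carrying the transplanted tumor received test compound or vehicle. Survival was recorded in each group, and the value is the treated-group measurement divided by that of the vehicle-treated control group.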

[1] = dose: 50.0 mg/kg/injection, schedule: Q01DX005 (ip), vehicle: Klucel (hydroxypropylcellulose) (HPC)
[2] = dose: 100.0 mg/kg/injection, schedule: Q01DX005 (ip), vehicle: Klucel (hydroxypropylcellulose) (HPC)
[3] = dose: 200.0 mg/kg/injection, schedule: Q01DX005 (ip), vehicle: Klucel (hydroxypropylcellulose) (HPC)
[4] = dose: 50.0 mg/kg/injection, schedule: Q01DX009 (ip), vehicle: saline with Tween-80
[5] = dose: 60.0 mg/kg/injection, schedule: Q01DX005 (ip), vehicle: saline with Tween-80
[6] = dose: 120.0 mg/kg/injection, schedule: Q01DX005 (ip), vehicle: saline with Tween-80
[7] = dose: 240.0 mg/kg/injection, schedule: Q01DX005 (ip), vehicle: saline with Tween-80
[8] = dose: 50.0 mg/kg/injection, schedule: Q01DX009 (ip), vehicle: saline
[9] = dose: 100.0 mg/kg/injection, schedule: Q01DX009 (ip), vehicle: saline
[10] = dose: 200.0 mg/kg/injection, schedule: Q01DX009 (ip), vehicle: saline
[11] = dose: 100.0 mg/kg/injection, schedule: Q01DX009 (ip), vehicle: saline with Tween-80
[12] = dose: 200.0 mg/kg/injection, schedule: Q01DX009 (ip), vehicle: saline with Tween-80
[13] = dose: 400.0 mg/kg/injection, schedule: Q01DX009 (ip), vehicle: saline with Tween-80
[14] = dose: 100.0 mg/kg/injection, schedule: Q04DX003 (ip), vehicle: saline
[15] = dose: 200.0 mg/kg/injection, schedule: Q04DX003 (ip), vehicle: saline
[16] = dose: 400.0 mg/kg/injection, schedule: Q04DX003 (ip), vehicle: saline
[17] = dose: 50.0 mg/kg/injection, schedule: Q01DX005 (ip), vehicle: saline

Measured: T/C

CCCCCCCCN=Cc1c(O)c(O)c(C(C)C)c2cc(C)c(-c3c(C)cc4c(C(C)C)c(O)c(O)c(C=NCCCCCCCC)c4c3O)c(O)c12
inactive: dose: 25.0 mg/kg/injection, schedule: Q01DX005 (ip), vehicle: Klucel (hydroxypropylcellulose) (HPC) 95 % of control | [1] 98 % of control | [2] 98 % of control | [3] 93 % of control

O=c1[nH]cnc2[nH]ccc12
inactive: [4] 106 % of control

CCCCCCCCCCCCNC(=S)C(=S)NCCCCCCCCCCCC
inactive: dose: 25.0 mg/kg/injection, schedule: Q01DX009 (ip), vehicle: Klucel (hydroxypropylcellulose) (HPC) 98 % of control | dose: 50.0 mg/kg/injection, schedule: Q01DX009 (ip), vehicle: Klucel (hydroxypropylcellulose) (HPC) 95 % of control | dose: 100.0 mg/kg/injection, schedule: Q01DX009 (ip), vehicle: Klucel (hydroxypropylcellulose) (HPC) 94 % of control

Cc1nc(N(C)C)oc(=O)c1CCc1ccccc1
inactive: [5] 102 % of control | [6] 102 % of control | [7] 100 % of control

CCc1cccc(CC)c1N1C(=O)c2cccnc2C1=O
inactive: [8] 100 % of control | [9] 97 % of control | [10] 93 % of control

Brc1ccc(C(Nc2nncs2)Nc2nncs2)cc1
inactive: [5] 111 % of control | [6] 115 % of control | [7] 107 % of control

Cc1cc2cc(O)c3c(=O)c4c(O)cccc4c(=O)c3c2c(=O)c1=O
inactive: dose: 3.12 mg/kg/injection, schedule: Q01DX005 (ip), vehicle: other 101 % of control | dose: 6.25 mg/kg/injection, schedule: Q01DX005 (ip), vehicle: other 107 % of control | dose: 12.5 mg/kg/injection, schedule: Q01DX005 (ip), vehicle: other 100 % of control | dose: 25.0 mg/kg/injection, schedule: Q01DX005 (ip), vehicle: other 104 % of control

O=[N+]([O-])c1ccc2nc(CC(O)(C(F)(F)F)C(F)(F)F)ccc2c1
inactive: [11] 115 % of control | [12] 90 % of control | [13] 95 % of control

O=C(NCCc1nc(-c2nc(C(=O)O)cs2)cs1)c1ccccc1
inactive: [11] 100 % of control | [12] 100 % of control | [13] 90 % of control

O=C1NC(=O)C(CCC[n+]2ccccc2)(c2ccccc2)C(=O)N1
inactive: [4] 107 % of control | [11] 107 % of control

O=C1CNC(=O)N1CCO
inactive: dose: 12.5 mg/kg/injection, schedule: Q04DX003 (ip), vehicle: saline 99 % of control | dose: 25.0 mg/kg/injection, schedule: Q04DX003 (ip), vehicle: saline 106 % of control | dose: 50.0 mg/kg/injection, schedule: Q04DX003 (ip), vehicle: saline 98 % of control | [14] 99 % of control | [15] 104 % of control | [16] 104 % of control

O=C(CCC(=O)Nc1cccc([N+](=O)[O-])c1)CC(=O)c1ccc(Cl)cc1
inactive: [5] 96 % of control | [6] 105 % of control | [7] 96 % of control

NC(=O)c1cn[nH]c1N
inactive: dose: 25.0 mg/kg/injection, schedule: Q01DX009 (ip), vehicle: suspension in saline 118 % of control | [8] 90 % of control | dose: 50.0 mg/kg/injection, schedule: Q01DX009 (ip), vehicle: suspension in saline 97 % of control | [9] 90 % of control | dose: 100.0 mg/kg/injection, schedule: Q01DX009 (ip), vehicle: suspension in saline 104 % of control | [10] 87 % of control | dose: 200.0 mg/kg/injection, schedule: Q01DX009 (ip), vehicle: suspension in saline 94 % of control

CN1c2ccccc2C2=C(C(=O)CCS2)S1(=O)=O
inactive: [17] 109 % of control | dose: 100.0 mg/kg/injection, schedule: Q01DX005 (ip), vehicle: saline 100 % of control | dose: 200.0 mg/kg/injection, schedule: Q01DX005 (ip), vehicle: saline 101 % of control

CCCCCCCCC(=O)CC
inactive: [11] 118 % of control | [14] 104 % of control | [12] 109 % of control | [15] 100 % of control | [16] 95 % of control

COc1cccc(N=Nc2c(-c3ccccc3)nn(C(=S)S)c2C)c1
inactive: dose: 50.0 mg/kg/injection, schedule: Q01DX005 (ip), vehicle: saline with Tween-80 93 % of control | dose: 100.0 mg/kg/injection, schedule: Q01DX005 (ip), vehicle: saline with Tween-80 93 % of control | dose: 200.0 mg/kg/injection, schedule: Q01DX005 (ip), vehicle: saline with Tween-80 91 % of control

O=c1[nH]cc(Br)c2ccccc12
inactive: dose: 25.0 mg/kg/injection, schedule: Q04DX002 (ip), vehicle: saline with Tween-80 92 % of control | dose: 50.0 mg/kg/injection, schedule: Q04DX002 (ip), vehicle: saline with Tween-80 93 % of control | dose: 100.0 mg/kg/injection, schedule: Q04DX002 (ip), vehicle: saline with Tween-80 96 % of control

CCOC(=O)Nc1cc(NC(C)CCCN(CC)CC)c2ncc(-c3cc(OC)c(OC)c(OC)c3)nc2n1 (stereo not drawn) (tested in a mixture with another compound)
inactive: dose: 66.0 mg/kg/injection, schedule: Q01DX009 (ip), vehicle: saline 118 % of control | [9] 109 % of control | dose: 150.0 mg/kg/injection, schedule: Q01DX009 (ip), vehicle: saline 104 % of control

CCCCCN(CCCCC)CCCNc1c2c(nc3ccc(Cl)cc13)CCCC2
inactive: dose: 12.5 mg/kg/injection, schedule: Q01DX005 (ip), vehicle: saline 95 % of control | dose: 25.0 mg/kg/injection, schedule: Q01DX005 (ip), vehicle: saline 104 % of control | [17] 104 % of control and 107 % of control

COC(=O)Cn1ccnc1[N+](=O)[O-]
inactive: dose: 12.5 mg/kg/injection, schedule: Q01DX009 (ip), vehicle: distilled water + Tween-80 100 % of control | dose: 25.0 mg/kg/injection, schedule: Q01DX009 (ip), vehicle: distilled water + Tween-80 93 % of control | dose: 50.0 mg/kg/injection, schedule: Q01DX009 (ip), vehicle: distilled water + Tween-80 93 % of control | dose: 100.0 mg/kg/injection, schedule: Q01DX009 (ip), vehicle: distilled water + Tween-80 93 % of control | dose: 200.0 mg/kg/injection, schedule: Q01DX009 (ip), vehicle: distilled water + Tween-80 90 % of control

CC1=CN(C(=O)c2ccccc2)C(C#N)N(C(=O)c2ccccc2)C1C#N (stereo not drawn)
inactive: dose: 60.0 mg/kg/injection, schedule: Q01DX005 (ip), vehicle: Klucel (hydroxypropylcellulose) (HPC) 100 % of control | dose: 120.0 mg/kg/injection, schedule: Q01DX005 (ip), vehicle: Klucel (hydroxypropylcellulose) (HPC) 103 % of control | dose: 240.0 mg/kg/injection, schedule: Q01DX005 (ip), vehicle: Klucel (hydroxypropylcellulose) (HPC) 102 % of control

C=CC1(OC)CC1CO (stereo not drawn)
inactive: dose: 25.0 mg/kg/injection, schedule: Q01DX001 (ip), vehicle: Klucel (hydroxypropylcellulose) (HPC) 99 % of control | dose: 50.0 mg/kg/injection, schedule: Q01DX001 (ip), vehicle: Klucel (hydroxypropylcellulose) (HPC) 102 % of control | dose: 100.0 mg/kg/injection, schedule: Q01DX001 (ip), vehicle: Klucel (hydroxypropylcellulose) (HPC) 91 % of control and 93 % of control | dose: 200.0 mg/kg/injection, schedule: Q01DX001 (ip), vehicle: Klucel (hydroxypropylcellulose) (HPC) 95 % of control

O=C1C=C2CCC3=CC(=O)C(=CC3=O)CCC(=C1)C2=O
inactive: dose: 100.0 mg/kg/injection, schedule: Q04DX002 (ip), vehicle: Klucel (hydroxypropylcellulose) (HPC) 97 % of control | dose: 200.0 mg/kg/injection, schedule: Q04DX002 (ip), vehicle: Klucel (hydroxypropylcellulose) (HPC) 97 % of control

CC(=O)Nc1ccc2c(c1)Cc1ccccc1-2
inactive: [11] 100 % of control | [12] 95 % of control | [13] 95 % of control

O=C1C2=C(C(=O)c3cnccc31)C1C=CC2CC1 (stereo not drawn)
inactive: dose: 25.0 mg/kg/injection, schedule: Q01DX005 (ip), vehicle: DMSO 98 % of control | dose: 50.0 mg/kg/injection, schedule: Q01DX005 (ip), vehicle: DMSO 92 % of control and 98 % of control | [1] 106 % of control | dose: 100.0 mg/kg/injection, schedule: Q01DX005 (ip), vehicle: DMSO 122 % of control | [2] 103 % of control | [3] 98 % of control
